Data published in US6547971B2 (priority 2000, dated 2003).
Several values for one entry are separate records, joined by “and”; a condition that tells them apart may be missing. Equal values may be shown once.

System: spores of Bacillus cereus
Type: cell-based

C[C@H](N)C(=O)O [L-alanine]
CFU: 72 and 85 | induction of spore germination (control samples A and B): did induce germination
